Patent US10780047B2, “Method of providing birth control” (The Population Council, Inc., priority 2019, dated 2020)
In brackets after ≈: the same amount, converted by molar mass. Like-named read-outs stand apart in the source and are kept apart here.

Columns and labels:
[1] = Drug-drug interaction study with vaginal miconazole formulations; type: in vivo, human; conditions: for overall increase in exposure: concurrent 1 day or 3-day oil-based miconazole suppository; for change in exposure from the vaginal system: concurrent water-based vaginal miconazole cream
Text: However, the use of either the 1 day or the 3-day oil-based miconazole suppository was associated with an overall increase in exposure up to 67% for EE and 32% for SA. Considering the potential long-term effect on vaginal system performance, concurrent use of oil-based vaginal suppositories should not occur with the system's use. If there is a need to treat a vaginal condition, water-based vaginal cream or oral therapy may be used concurrently with the vaginal system.

[2] = in vivo
[3] = Solubility; conditions: descriptive term
[4] = target: cytochrome P450 (CYP) 3A4 isoenzyme (Homo sapiens, UniProt P08684)
Chain of cytochrome P450 (CYP) 3A4 isoenzyme (P08684 whole entry): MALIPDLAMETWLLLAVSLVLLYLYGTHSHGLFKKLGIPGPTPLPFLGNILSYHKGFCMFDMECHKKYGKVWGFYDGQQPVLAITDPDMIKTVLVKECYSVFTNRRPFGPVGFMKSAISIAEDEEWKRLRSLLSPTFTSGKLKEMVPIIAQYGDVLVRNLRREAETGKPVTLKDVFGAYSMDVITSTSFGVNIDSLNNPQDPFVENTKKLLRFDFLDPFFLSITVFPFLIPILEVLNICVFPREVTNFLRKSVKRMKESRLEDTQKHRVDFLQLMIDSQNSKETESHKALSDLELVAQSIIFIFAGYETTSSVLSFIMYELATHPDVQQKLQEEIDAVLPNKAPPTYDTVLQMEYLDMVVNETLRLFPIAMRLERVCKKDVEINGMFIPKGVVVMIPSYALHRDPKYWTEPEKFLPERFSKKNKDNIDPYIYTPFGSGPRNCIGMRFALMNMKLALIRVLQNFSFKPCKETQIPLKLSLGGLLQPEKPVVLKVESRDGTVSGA
Text: These are present as free metabolites and as sulfate and glucuronide conjugates.

[5] = Residual amount of drug in vaginal systems used in clinical trials over 13 product-use cycles; type: in vivo, human; conditions: based on residual drug in used systems
Experimental: Although the vaginal system provides SA and EE in the approximate rates described above, SA and EE can diffuse out of the vaginal system with release rates that vary over time. In certain embodiments, the daily in vitro release rates of SA and EE are higher during each initial 24-48 hours of use in a given product-use cycle, achieving a somewhat lower steady-state with continued use over subsequent days in each product-use cycle. Based on the residual amount of drug in vaginal systems used in clinical trials over 13 product-use cycles, a total of approximately 41.3 mg of SA and approximately 3.4 mg of EE are released over this period.

[6] = Pharmacokinetics of the vaginal system in 39 women over up to 13 product-use cycles; type: in vivo, human; set-up: AUC(0-t) / AUC0-21day / AUC0-1day: concentration or dose not given beside the values; conditions: vaginal administration; for AUC0-1day / AUC0-21day / Cavg / Cmax / AUC(0-t): mean (SD)
Experimental: The pharmacokinetics (PK) of the vaginal system described herein were determined in 39 women who used the system for up to 13 product-use cycles. […] Over subsequent product-use cycles, the peak serum concentrations of SA and EE declined. Serum concentration-time profiles of SA and EE for product-pse cycles 1, 3, and 13 of system use are provided in FIG. 1 and FIG. 2 with PK parameters summarized in Table 3 and Table 4.

[7] = co-administration of atorvastatin or rosuvastatin and certain CHCs containing EE; cited from earlier work
[8] = target: serum albumin (Homo sapiens, UniProt P02768); assay: Serum albumin binding; type: in vitro ADME; conditions: not specifically bound
Chain of serum albumin (P02768 25-609): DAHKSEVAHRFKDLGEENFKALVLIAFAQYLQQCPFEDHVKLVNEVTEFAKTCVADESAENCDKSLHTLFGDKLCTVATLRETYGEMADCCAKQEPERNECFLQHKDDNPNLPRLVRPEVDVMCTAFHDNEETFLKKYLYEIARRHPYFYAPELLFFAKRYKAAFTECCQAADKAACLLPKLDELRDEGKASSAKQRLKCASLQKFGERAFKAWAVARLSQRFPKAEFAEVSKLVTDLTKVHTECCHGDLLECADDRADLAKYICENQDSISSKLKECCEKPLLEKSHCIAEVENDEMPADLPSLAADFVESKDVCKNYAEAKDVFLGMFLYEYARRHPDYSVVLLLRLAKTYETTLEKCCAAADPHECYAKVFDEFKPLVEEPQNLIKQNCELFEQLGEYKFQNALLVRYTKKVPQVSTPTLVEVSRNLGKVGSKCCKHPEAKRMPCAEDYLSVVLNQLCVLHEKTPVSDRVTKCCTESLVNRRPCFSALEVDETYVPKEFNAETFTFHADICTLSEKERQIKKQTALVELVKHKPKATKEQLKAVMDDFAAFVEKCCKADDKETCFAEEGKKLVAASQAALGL

[9] = tested on: mouse; assay: In vivo mouse micronucleus test
[10] = tested on: rats; assay: Return to fertility study in rats with subdermal implants; type: in vivo, rat
Experimental: A return to fertility study was conducted with segesterone acetate in rats, using subdermal implants releasing a dose approximately 25 times the anticipated daily vaginal human dose (based on body surface area).

[11] = tested on: human serum proteins; assay: Serum protein binding; type: in vitro ADME
[12] = tested on: mice; assay: 2-year intravaginal carcinogenicity study in mice; type: in vivo, mouse; conditions: intravaginal gel, 2 years
Text: (§1) Long-term continuous administration of natural and synthetic estrogens in certain animal species increases the frequency of carcinomas of the breast, uterus, cervix, vagina, testis, and liver.

[13] = tested on: rats; assay: 2-year carcinogenicity study in rats with subdermal implants; type: in vivo, rat; conditions: subdermal implants releasing 40, 100, and 200 μg per day, 2 years
Text: as §1

[14] = tested on: Salmonella; assay: Ames/Salmonella reverse mutation assay; type: cell-based
[15] = tested on: QTc interval; assay: Phase 1 thorough QTc study; type: in vivo, human; conditions: single intravenous bolus dose giving 4.5-fold the therapeutic serum concentrations; 44 healthy adult female subjects
Experimental: The effect of SA on the QTc interval was evaluated in a Phase 1 randomized, placebo and positive controlled, double-blind, single-dose, three-period, crossover thorough QTc study in 44 healthy adult female subjects.

[16] = tested on: Chinese hamster ovary cells; assay: Chromosomal aberration assay; type: cell-based
[17] = target: T1, sex hormone-binding globulin (SHBG) (Homo sapiens, UniProt P04278); assay: Binding affinity for SHBG
T1 sequence (P04278 30-402): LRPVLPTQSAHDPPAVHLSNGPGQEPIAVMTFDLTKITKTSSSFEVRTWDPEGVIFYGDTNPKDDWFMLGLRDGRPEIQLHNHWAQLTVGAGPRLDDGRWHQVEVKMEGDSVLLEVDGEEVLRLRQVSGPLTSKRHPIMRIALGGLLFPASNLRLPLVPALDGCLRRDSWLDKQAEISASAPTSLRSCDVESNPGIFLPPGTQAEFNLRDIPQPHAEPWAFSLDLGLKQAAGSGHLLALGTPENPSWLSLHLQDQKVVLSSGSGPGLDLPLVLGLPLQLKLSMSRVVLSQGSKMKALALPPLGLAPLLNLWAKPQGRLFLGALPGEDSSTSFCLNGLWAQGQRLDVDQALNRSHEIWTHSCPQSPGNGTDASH

[18] = tested on: CYP enzymes; assay: In vitro CYP inhibition/induction studies; type: in vitro ADME; conditions: at the therapeutic dose
[19] = physchem; conditions: water
[20] = clinical; conditions: human, in vivo

For `C#C[C@]1(O)CC[C@H]2[C@@H]3CCc4cc(O)ccc4[C@H]3CC[C@@]21C` [EE, 19-nor-17α-pregna-1,3,5(10)-trien-20-yne-3,17-diol], the “overall increase in exposure” value [1] was “up to 67%”, the “change in exposure from the vaginal system” value [1] was “no change” and the half-life ([2]; human) was 15.1 (7.5) hours. The “effect on serum concentrations of SHBG” value [2] was “induces an increase”, the “solubility in alkaline solution” value [3] was “dissolves” and the metabolizing enzyme [4] was “metabolized by the cytochrome P450 (CYP) 3A4 isoenzyme”. The total amount released [5] was “approximately 3.4 mg”, the AUC0-1day ([6]; Cycle 1, serum) was 2.1 (0.7) ng * hr/mL and the AUC0-21day ([6]; Cycle 1, serum) was 22.2 (9.8) ng * hr/mL. For the same molecule, the Cavg ([6]; Cycle 1, serum) was 44 (19) pg/mL, the Cmax ([6]; Cycle 1, serum) was 129 (39) pg/mL and the AUC0-1day ([6]; Cycle 3, serum) was 0.9 (0.4) ng * hr/mL. The AUC0-21day ([6]; Cycle 3, serum) was 14.7 (4.7) ng * hr/mL, the Cavg ([6]; Cycle 3, serum) was 29 (9) pg/mL and the Cmax ([6]; Cycle 3, serum) was 60 (32) pg/mL. For the same molecule, the AUC0-1day ([6]; Cycle 13, serum) was 0.7 (0.3) ng * hr/mL, the AUC0-21day ([6]; Cycle 13, serum) was 9.6 (4.1) ng * hr/mL and the Cavg ([6]; Cycle 13, serum) was 19 (8) pg/mL. For the same molecule, the Cmax ([6]; Cycle 13, serum) was 39 (16) pg/mL, the “median Tmax” value ([6]; product-use cycle 1, 3 and 13) was “about 2 hours” and the “increase in systemic exposure of EE” value [7] was 20-25%. For the same molecule, the “bound to serum albumin” value [8] was 98.5%.
For `C=C1C[C@H]2[C@@H]3CCC4=CC(=O)CC[C@@H]4[C@H]3CC[C@]2(C)[C@@]1(OC(C)=O)C(C)=O` [SA, 16-methylene-17α-acetoxy-19-nor-pregn-4-ene-3,20-dione], the micronucleus test result [9] was “neither mutagenic nor elastogenic”, the “effects on ovulation or litter parameters after treatment” value ([10]; 7 weeks after cessation of treatment) was “no adverse effects on ovulation or resulting litter parameters” and the effect on fertility ([10]; subdermal implants, three months of treatment, approximately 25 times the human dose) was “suppressed fertility”. For the same molecule, the “bound to human serum proteins” value [11] was “approximately 95%”, the “overall increase in exposure” value [1] was at most 32% and the “change in exposure from the vaginal system” value [1] was “no change”. For the same molecule, the carcinogenic findings ([12]; 10 mg/kg/day) was “did not result in carcinogenic findings”, the carcinogenic findings ([12]; 30 mg/kg/day) was “increased incidence of adenocarcinoma and lobular hyperplasia in the breast” and the tumor incidence [13] was “no drug-related increase in tumor incidence”. For the same molecule, the mutagenicity [14] was “neither mutagenic nor elastogenic”, the metabolizing enzyme ([4]; human) was “metabolized by the cytochrome P450 (CYP) 3A4 isoenzyme” and the “effect on the QTc interval” value [15] was “did not prolong the QTc interval to any clinically relevant extent”. For the same molecule, the chromosomal aberration [16] was “neither mutagenic nor elastogenic”, the “binding affinity for sex hormone-binding globulin (SHBG)” value [17] was “negligible” and the total amount released [5] was “approximately 41.3 mg”. The Cavg ([6]; Cycle 1, serum) was 191 (34) pg/mL, the Cavg ([6]; Cycle 3, serum) was 131 (29) pg/mL and the Cavg ([6]; Cycle 13, serum) was 94 (20) pg/mL. The AUC(0-t) ([6]; female, human, serum, Cycle 1, serum, read-out: AUC0-1day) was 15 ng·h/mL, the AUC(0-t) ([6]; female, human, serum, Cycle 1, serum, read-out: AUC0-21day) was 96.2 ng·h/mL and the Cmax ([6]; female, human, serum, Cycle 1, serum, read-out: Cmax) was 1.15 ng/mL. For the same molecule, the AUC(0-t) ([6]; female, human, serum, Cycle 3, serum, read-out: AUC0-1day) was 5 ng·h/mL, the AUC(0-t) ([6]; female, human, serum, Cycle 3, serum, read-out: AUC0-21day) was 65.9 ng·h/mL and the Cmax ([6]; female, human, serum, Cycle 3, serum, read-out: Cmax) was 0.363 ng/mL. It also gave an AUC(0-t) ([6]; female, human, serum, Cycle 13, serum, read-out: AUC0-1day) of 3.9 ng·h/mL, an AUC(0-t) ([6]; female, human, serum, Cycle 13, serum, read-out: AUC0-21day) of 47.2 ng·h/mL and a Cmax ([6]; female, human, serum, Cycle 13, serum, read-out: Cmax) of 0.294 ng/mL. The Tmax ([6]; female, human, serum, product-use cycle 1, 3 and 13, read-out: median Tmax) was about 2 h, the “inhibition or induction of CYP enzymes” value [18] was “unlikely to inhibit or induce CYP enzymes” and the solubility [19] was 18.5 µg/mL (≈ 49.9 µM). For the same molecule, the Vd [20] was 19.6 L/kg and the half-life [20] was 4.5 h.
